{"source": "patent US9629828B2", "about": "“Methods of treating traveler's diarrhea and hepatic encephalopathy” (priority 2008, dated 2017)", "key": {"[1]": {"system": "subjects in remission from hepatic encephalopathy (HE)", "test": "First study: asterixis grade (time to any increase, change from baseline)", "assay_type": "in vivo, human", "settings": "for Probability of no increase in asterixis grade: Kaplan-Meier; for Probability of no increase in asterixis grade / Cumulative number of events (increase in asterixis grade) / Event probability (increase in asterixis grade during the treatment interval) / Number of events (increase in asterixis grade): ITT, N = 140", "method": "Asterixis (flapping tremor) was determined with the subject holding both arms and forearms extended with wrists dorsiflexed and fingers open for ≧30 seconds. Asterixis was measured on a continuum of 5 grades, e.g., grades 0 and 4=no abnormal movement vs. almost continuous flapping motions, respectively as shown below:\nEfficacy in regard to asterixis grade was measured as time to any increase from baseline in asterixis grade.\nFIG. 12 illustrates time to any increase from baseline in asterixis grade by treatment group in the ITT population in the first study. Table 21 presents estimates of the proportions of subjects who had any increase in asterixis grade over the course of the Treatment Period and results of statistical analyses. Subjects who discontinued prior to experiencing an increase in asterixis grade and prior to completion of the 6-month treatment period were censored at the time of discontinuation."}, "[2]": {"system": "subjects with a history of recurrent, overt, episodic HE", "test": "Second study: hospitalization rates", "assay_type": "in vivo, human", "source_text": "Normalizing for subject exposure, this represents a hospitalization rate of 0.60 event/PEY. A total of 59 were hospitalized due HE episodes (e.g., HE-caused). Normalizing for subject exposure, this represents an HE-caused hospitalization rate of 0.29 event/PEY. […] All subjects were capable of worsening over time, and 24/266 subjects (9.0%) did so by 1 or 2 grades."}, "[3]": {"system": "subjects with a history of recurrent, overt, episodic HE", "settings": "human, in vivo", "source_text": "At the time of this interim analysis, TEAEs were reported in 230 subjects (86.5%). The most common TEAEs (e.g., in ≧10% of total subjects) experienced by subjects were the following: peripheral edema (15.8%); urinary tract infection and nausea (12.8% each); and abdominal pain and ascites (10.5% each).\nTreatment-emergent SAEs were experienced by 47.4% of subjects."}, "[4]": {"system": "adult subjects with travelers' diarrhea", "test": "Travelers' diarrhea Study 1: clinical response (TLUS, clinical cure)", "assay_type": "in vivo, human", "method": "(§1) One study was conducted at clinical sites in Mexico, Guatemala, and Kenya (Study 1). The other study was conducted in Mexico, Guatemala, Peru, and India (Study 2). Stool specimens were collected before treatment and 1 to 3 days following the end of treatment to identify enteric pathogens. The predominant pathogen in both studies was Escherichia coli.\nThe clinical efficacy of rifaximin was assessed by the time to return to normal, formed stools and resolution of symptoms. The primary efficacy endpoint was time to last unformed stool (TLUS) which was defined as the time to the last unformed stool passed, after which clinical cure was declared. […] More patients treated with rifaximin were classified as clinical cures than were those in the placebo group."}, "Campylobacter jejuni": {"system": "Campylobacter jejuni", "test": "Travelers' diarrhea Study 2: fever/blood in stool, Campylobacter jejuni", "design": "species or system human", "settings": "in vivo", "method": "as §1\nThe results of Study 2 supported the results presented for Study 1. […] These subjects had lower clinical cure rates than those without fever or blood in the stool at baseline. Many of the patients with fever and/or blood in the stool (dysentery-like diarrheal syndromes) had invasive pathogens, primarily Campylobacter jejuni, isolated in the baseline stool.\nIn addition to not being different from placebo, the microbiologic eradication rates for subjects with Campylobacter jejuni isolated at baseline were much lower than the eradication rates seen for Escherichia coli."}, "CYP3A4": {"target": "T1, CYP3A4 (Homo sapiens, UniProt P08684)", "T1 construct": "from tissue; host or cells: human liver fractions", "T1 sequence (P08684 whole entry)": "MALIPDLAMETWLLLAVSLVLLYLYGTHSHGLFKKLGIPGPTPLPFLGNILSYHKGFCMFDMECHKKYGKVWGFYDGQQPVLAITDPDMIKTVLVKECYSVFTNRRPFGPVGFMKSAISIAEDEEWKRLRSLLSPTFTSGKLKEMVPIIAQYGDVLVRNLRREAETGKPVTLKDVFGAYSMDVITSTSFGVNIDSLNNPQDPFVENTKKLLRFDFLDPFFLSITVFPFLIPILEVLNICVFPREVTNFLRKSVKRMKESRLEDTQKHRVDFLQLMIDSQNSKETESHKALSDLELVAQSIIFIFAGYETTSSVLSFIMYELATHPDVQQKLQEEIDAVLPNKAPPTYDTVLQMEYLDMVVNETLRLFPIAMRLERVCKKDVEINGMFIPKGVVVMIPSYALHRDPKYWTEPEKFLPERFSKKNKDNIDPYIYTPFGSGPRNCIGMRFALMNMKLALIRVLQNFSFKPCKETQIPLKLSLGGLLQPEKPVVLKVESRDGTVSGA", "test": "In vitro cytochrome P450 inhibition", "assay_type": "in vitro ADME", "settings": "2 to 200 ng/mL"}, "rat hepatocyte": {"system": "rat hepatocyte", "assay_type": "cell-based"}, "in vivo": {"test": "in vivo", "settings": "rat", "method": "(§2) However, plasma drug levels were not measured in these studies. […] The maximum plasma AUC0-8 hr values from the 6 month rat and 9 month dog toxicity studies (range: 42-127 ng·h/mL) was lower than the maximum plasma AUC0-8 hr values in cirrhotic patients (range: 19-306 ng·h/mL)."}, "rats": {"system": "rats", "test": "in vivo", "settings": "rat", "method": "as §2"}, "[5]": {"system": "liver transplant patients who presented with HE", "test": "Chart review of 39 liver transplant patients with HE", "assay_type": "in vivo, human"}, "patients with HE": {"system": "patients with HE", "test": "Rifaximin 1200 mg/day: effect on blood ammonia and HE grade (50 patients)", "assay_type": "in vivo, human", "settings": "for effect on HE grade: 1200 mg/day; for effect on blood ammonia: 1200 mg/day for 5-10 days", "source_text": "Correlation between ammonia reduction over time and HE was examined.\nWhile discrete blood ammonia concentrations may be variable, serial measurements in individual patients have been associated with HE severity."}, "[6]": {"system": "Gram-positive and Gram-negative bacteria, such as Escherichia coli", "test": "In vitro antibacterial activity / susceptibility (NCCLS agar dilution M7-A6)", "assay_type": "cell-based", "method": "In vitro susceptibility testing was performed according to the National Committee for Clinical Laboratory Standards (NCCLS) agar dilution method M7-A612.\nMethods for dilution antimicrobial susceptibility tests for bacteria that grow aerobically. National Committee for Clinical Laboratory Standards, Sixth Edition, Wayne Pa. Approved Standard NCCLS Document M7-A6 Jan."}, "epithelial cells": {"system": "epithelial cells", "test": "Effects of rifaximin on mammalian epithelial cells", "assay_type": "cell-based"}, "[7]": {"settings": "treatment interval 0 to <28 days"}, "[8]": {"settings": "treatment interval 28 to <56 days"}, "[9]": {"settings": "treatment interval 56 to <84 days"}, "[10]": {"settings": "treatment interval 84 to <140 days"}, "[11]": {"settings": "treatment interval 140 to <168 days"}}, "note": "Entries after “also recorded” stand apart in the source; their conditions may differ. Where two headings read alike, the source gives them in different places. Marks after values point to notes of the source that are not given here.", "data": [{"smiles": "CO[C@H]1/C=C/O[C@@]2(C)Oc3c(C)c(O)c4c(O)c(c5c(nc6cc(C)ccn65)c4c3C2=O)NC(=O)/C(C)=C\\C=C\\[C@H](C)[C@H](O)[C@@H](C)[C@@H](O)[C@@H](C)[C@H](OC(C)=O)[C@@H]1C", "note": "[rifaximin, (2S,16Z,18E,20S,21S,22R,23R,24R,25 S,26S,27S,28E)-5,6,21,23,25-pentahydroxy-27-methoxy-2,4,11,16,20,22,24,26-octamethyl-2,7-(epoxypentadeca-[1,11,13]trienimino)benzofuro[4,5-e]pyrido[1,2-á]-benzimidazole-1,15(2H)-dione,25-acetate]", "values": [{"measurement": "Number of subjects in each level of change from baseline in asterixis grade", "setting": "[1]; Baseline to EOT, level: r10 −2, r11 −1, r12 0, r13 1, r14 2, r15 3, r16 4", "result": "18 (12.9%) n (%)"}, {"measurement": "Probability of no increase in asterixis grade", "setting": "[1]; [7]", "result": 1.0000}, {"measurement": "Probability of no increase in asterixis grade", "setting": "[1]; [8]", "result": 0.9048}, {"measurement": "Probability of no increase in asterixis grade", "setting": "[1]; [9]", "result": 0.8499}, {"measurement": "Probability of no increase in asterixis grade", "setting": "[1]; [10]", "result": 0.7910}, {"measurement": "Probability of no increase in asterixis grade", "setting": "[1]; [11]", "result": 0.7637}, {"measurement": "Probability of no increase in asterixis grade", "setting": "[1]; treatment interval ≧168 days", "result": 0.7534}, {"measurement": "subjects with changes in asterixis grade of 1, 2, 3, or 4", "setting": "[1]; baseline to end of treatment", "result": 11.6, "unit": "%"}, {"measurement": "subjects with changes in asterixis grade of −2, −1, and 0", "setting": "[1]; baseline to end of treatment", "result": 88.5, "unit": "%"}, {"measurement": "prevention of worsening of asterixis grade, times versus placebo", "setting": "[1]; in vivo", "result": 1.92, "unit": "times"}, {"measurement": "reduction in risk of worsening of asterixis", "setting": "[1]; in vivo", "result": 35, "unit": "%"}, {"measurement": "subjects with increases in asterixis grade", "setting": "[1]; in vivo", "result": "32 of 140"}, {"measurement": "time to first increase in Asterixis grade vs placebo (FIG. 5)", "setting": "[1]; in vivo", "result": "increased time to the first increase in Asterixis grade"}, {"measurement": "Cumulative number of events (increase in asterixis grade)", "setting": "[1]; [7]", "result": 13}, {"measurement": "Event probability (increase in asterixis grade during the treatment interval)", "setting": "[1]; [7]", "result": 0.10}, {"measurement": "Number of events (increase in asterixis grade)", "setting": "[1]; [7]", "result": 13}, {"measurement": "Cumulative number of events (increase in asterixis grade)", "setting": "[1]; [8]", "result": 20}, {"measurement": "Event probability (increase in asterixis grade during the treatment interval)", "setting": "[1]; [8]", "result": 0.06}, {"measurement": "Number of events (increase in asterixis grade)", "setting": "[1]; [8]", "result": 7}, {"measurement": "Cumulative number of events (increase in asterixis grade)", "setting": "[1]; [9]", "result": 27}, {"measurement": "Event probability (increase in asterixis grade during the treatment interval)", "setting": "[1]; [9]", "result": 0.07}, {"measurement": "Number of events (increase in asterixis grade)", "setting": "[1]; [9]", "result": 7}, {"measurement": "Cumulative number of events (increase in asterixis grade)", "setting": "[1]; [10]", "result": 30}, {"measurement": "Event probability (increase in asterixis grade during the treatment interval)", "setting": "[1]; [10]", "result": 0.03}, {"measurement": "Number of events (increase in asterixis grade)", "setting": "[1]; [10]", "result": 3}, {"measurement": "Cumulative number of events (increase in asterixis grade)", "setting": "[1]; [11]", "result": 31}, {"measurement": "Event probability (increase in asterixis grade during the treatment interval)", "setting": "[1]; [11]", "result": 0.01}, {"measurement": "Number of events (increase in asterixis grade)", "setting": "[1]; [11]", "result": 1}, {"measurement": "Cumulative number of events (increase in asterixis grade)", "setting": "[1]; treatment interval ≧168 days", "result": 32}, {"measurement": "Event probability (increase in asterixis grade during the treatment interval)", "setting": "[1]; treatment interval ≧168 days", "result": 0.03}, {"measurement": "Number of events (increase in asterixis grade)", "setting": "[1]; treatment interval ≧168 days", "result": 1}, {"measurement": "subjects hospitalized due HE episodes", "setting": "[2]; in vivo", "result": 59, "unit": "subjects"}, {"measurement": "subjects hospitalized for any cause", "setting": "[2]; in vivo", "result": "133 of 266"}, {"measurement": "HE-caused hospitalization rate", "setting": "[2]; second study", "result": 0.29, "unit": "event/PEY"}, {"measurement": "TEAE abdominal pain", "setting": "[3]", "result": 10.5, "unit": "%"}, {"measurement": "TEAE ascites", "setting": "[3]", "result": 10.5, "unit": "%"}, {"measurement": "TEAE nausea", "setting": "[3]", "result": 12.8, "unit": "%"}, {"measurement": "TEAE peripheral edema", "setting": "[3]", "result": 15.8, "unit": "%"}, {"measurement": "TEAE urinary tract infection", "setting": "[3]", "result": 12.8, "unit": "%"}, {"measurement": "subjects with HE counted for the safety analyses", "setting": "[3]", "result": 21.4, "unit": "%"}, {"measurement": "subjects with TEAEs", "setting": "[3]", "result": 86.5, "unit": "%"}, {"measurement": "subjects with at least 1 severe TEAE", "setting": "[3]", "result": 40.2, "unit": "%"}, {"measurement": "subjects with treatment-emergent SAEs", "setting": "[3]", "result": 47.4, "unit": "%"}, {"measurement": "Median TLUS", "setting": "[4]; 200 mg TID 3 days, ITT n = 125", "result": 32.5, "unit": "h"}, {"measurement": "Difference in rates of clinical cure vs placebo", "setting": "[4]; ITT", "result": "18.7^b"}, {"measurement": "Clinical cure", "setting": "[4]; ITT n = 125", "result": "99 (79.2) n (%)"}, {"measurement": "clinical cure rate, Campylobacter jejuni as sole pathogen at baseline", "setting": "Campylobacter jejuni", "result": 23.5, "unit": "%"}, {"measurement": "effectiveness in travelers' diarrhea due to Campylobacter jejuni", "setting": "Campylobacter jejuni", "result": "not effective"}, {"measurement": "inhibition of CYP3A4", "setting": "CYP3A4", "result": "did not inhibit"}, {"measurement": "genotoxicity", "setting": "rat hepatocyte", "result": "not genotoxic"}, {"measurement": "AUC(0-t)", "setting": "in vivo", "result": "42 to 127", "unit": "ng·h/mL"}, {"measurement": "toxic effects", "setting": "rats", "result": "negligible toxic effects"}, {"measurement": "hospitalizations reported", "setting": "[5]; 15 rifaximin, 24 lactulose patients", "result": 3}, {"measurement": "average length of stay", "setting": "[5]; human, in vivo", "result": 3.5, "unit": "days"}, {"measurement": "effect on HE grade", "setting": "patients with HE", "result": "significant improvement in overall HE grade"}, {"measurement": "effect on blood ammonia", "setting": "patients with HE", "result": "statistically significant blood ammonia reduction; also recorded: lowers ammonia levels"}, {"measurement": "effect on blood ammonia", "setting": "patients with HE; listed as Rifaximin", "result": "decreased blood ammonia"}, {"measurement": "effect on HE grade", "setting": "patients with HE; listed as Rifaximin", "result": "improvement in HE grade"}, {"measurement": "in vitro antibacterial activity", "setting": "[6]", "result": "active"}, {"measurement": "in vitro antibacterial activity", "setting": "[6]; listed as Rifaximin", "result": "in vitro antimicrobial activity; also recorded: broad spectrum of in vitro antibacterial activity"}, {"measurement": "effect on epithelial cells", "setting": "epithelial cells", "result": "resistant to bacterial colonization and internalization"}]}]}
